± gives the standard deviation of the averaged measurements.
How the values were obtained:
AFATINIB [1] = compound: T1, CN(C)C/C=C/C(=O)Nc1cc2c(Nc3ccc(F)c(Cl)c3)ncnc2cc1O[C@H]1CCOC1 [AFATINIB]; assay: area under dose-response curve of surviving fraction (unscaled, Aref=0) (surviving fraction x log10(nM)); higher = more resistant; conditions: exposure time: 5 days; dose range 0.5-1000 nM
In short: (§1)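 Surviving fractions were fitted by 3-parameter logistic regression in the drc R package to give dose-response survival curves. They came from tumour cell lines treated for five days with eight inhibitor concentrations from 0.5 to 1000 nM and read by CellTiter-Glo luminescence against DMSO-only wells. The area under the curve is the unscaled activity area. It was calculated over log10 dose with Aref = 0.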

SNX-5422 [2] = compound: T2, CC1(C)CC(=O)c2c(C(F)(F)F)nn(-c3ccc(C(N)=O)c(N[C@H]4CC[C@H](OC(=O)CN)CC4)c3)c2C1 [SNX-5422]; assay: as above; conditions: exposure time: 5 days; dose range 0.5-1000 nM
In short: as §1

MDV3100 [3] = compound: T3, CNC(=O)c1ccc(N2C(=S)N(c3ccc(C#N)c(C(F)(F)F)c3)C(=O)C2(C)C)cc1F [MDV3100]; assay: as above; conditions: exposure time: 5 days; dose range 0.5-1000 nM
In short: as §1

SAPACITABINE [4] = compound: T4, CCCCCCCCCCCCCCCC(=O)Nc1ccn([C@@H]2O[C@H](CO)[C@@H](O)[C@@H]2C#N)c(=O)n1 [SAPACITABINE]; assay: as above; conditions: exposure time: 5 days; dose range 0.5-1000 nM
In short: as §1

[5] = compound: Cn1cc(C2=Nc3cc(NC(=O)C(N)C4CCCCC4)cc4c3C2=CNNC4=O)cn1; assay: as above; conditions: exposure time: 5 days; dose range 0.5-1000 nM
In short: as §1

TIOGUANINE [6] = compound: T5, Nc1nc2[nH]cnc2c(=S)[nH]1 [TIOGUANINE]; assay: as above; conditions: exposure time: 5 days; dose range 0.5-1000 nM
In short: as §1

CANERTINIB [7] = compound: T6, C=CC(=O)Nc1cc2c(Nc3ccc(F)c(Cl)c3)ncnc2cc1OCCCN1CCOCC1 [CANERTINIB]; assay: as above; conditions: exposure time: 5 days; dose range 0.5-1000 nM
In short: as §1

BI-2536 [8] = compound: T7, CC[C@@H]1C(=O)N(C)c2cnc(Nc3ccc(C(=O)NC4CCN(C)CC4)cc3OC)nc2N1C1CCCC1 [BI-2536]; assay: as above; conditions: exposure time: 5 days; dose range 0.5-1000 nM
In short: as §1

AFATINIB [9] = compound: T1, AFATINIB; assay: surviving fraction relative to DMSO-only wells; higher = less growth inhibition; conditions: exposure time: 5 days
In short: (§2)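 Tumour cell lines in log phase were plated in 384-well plates at 250–500 cells per well, then, after 24 hours, exposed continuously for five days to inhibitors at 0.5, 1, 5, 10, 50, 100, 500 and 1000 nM. Viability came from CellTiter-Glo luminescence, and surviving fraction is that signal normalised to the median of DMSO-only wells. Plates were read after 10 minutes at room temperature, and each line, screened three times, was kept only when replicate Pearson r was >0.7 and median Z' was >0.3.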

SNX-5422 [10] = compound: T2, SNX-5422; assay: as above; conditions: exposure time: 5 days
In short: as §2

MDV3100 [11] = compound: T3, MDV3100; assay: as above; conditions: exposure time: 5 days
In short: as §2

SAPACITABINE [12] = compound: T4, SAPACITABINE; assay: as above; conditions: exposure time: 5 days
In short: as §2

[13] = compound: Cn1cc(C2=Nc3cc(NC(=O)C(N)C4CCCCC4)cc4c3C2=CNNC4=O)cn1; assay: as above; conditions: exposure time: 5 days
In short: as §2

TIOGUANINE [14] = compound: T5, TIOGUANINE; assay: as above; conditions: exposure time: 5 days
In short: as §2

CANERTINIB [15] = compound: T6, CANERTINIB; assay: as above; conditions: exposure time: 5 days
In short: as §2

BI-2536 [16] = compound: T7, BI-2536; assay: as above; conditions: exposure time: 5 days
In short: as §2

Q: How did the “area under dose-response curve” value (AFATINIB [1]) turn out when MHM BONE was run?
A: 3.27

Q: And the “area under dose-response curve” value (SNX-5422 [2])?
A: 2.48

Q: And the “area under dose-response curve” value (MDV3100 [3])?
A: 3.28

Q: What about the “area under dose-response curve” value (SAPACITABINE [4]) of the same test system?
A: 2.69

Q: And the “area under dose-response curve” value [5]?
A: 2.98

Q: And the “area under dose-response curve” value (TIOGUANINE [6])?
A: 3.29

Q: And the “area under dose-response curve” value (CANERTINIB [7])?
A: 3.2

Q: And the “area under dose-response curve” value (BI-2536 [8])?
A: 2.08

Q: What about the surviving fraction (AFATINIB [9]; 0.5 nM) of the same test system?
A: 1.022 ± 0.0067

Q: And the surviving fraction (AFATINIB [9]; 1 nM)?
A: 1 ± 0.018

Q: What about the surviving fraction (AFATINIB [9]; 5 nM) of the same test system?
A: 1.02 ± 0.016

Q: And the surviving fraction (AFATINIB [9]; 10 nM)?
A: 1 ± 0.03

Q: And the surviving fraction (AFATINIB [9]; 50 nM)?
A: 1.07 ± 0.028

Q: What about the surviving fraction (AFATINIB [9]; 100 nM) of the same test system?
A: 1.03 ± 0.016

Q: And the surviving fraction (AFATINIB [9]; 500 nM)?
A: 0.961 ± 0.041

Q: And the surviving fraction (AFATINIB [9]; 1000 nM)?
A: 0.883 ± 0.022

Q: And the surviving fraction (SNX-5422 [10]; 0.5 nM)?
A: 1.01 ± 0.018

Q: And the surviving fraction (SNX-5422 [10]; 1 nM)?
A: 1.04 ± 0.015

Q: What about the surviving fraction (SNX-5422 [10]; 5 nM) of the same test system?
A: 1.04 ± 0.023

Q: And the surviving fraction (SNX-5422 [10]; 10 nM)?
A: 1.06 ± 0.013

Q: What about the surviving fraction (SNX-5422 [10]; 50 nM) of the same test system?
A: 1.02 ± 0.015

Q: What about the surviving fraction (SNX-5422 [10]; 100 nM) of the same test system?
A: 0.635 ± 0.047

Q: What about the surviving fraction (SNX-5422 [10]; 500 nM) of the same test system?
A: 0.186 ± 0.0096

Q: And the surviving fraction (SNX-5422 [10]; 1000 nM)?
A: 0.149 ± 0.0076

Q: And the surviving fraction (MDV3100 [11]; 0.5 nM)?
A: 1 ± 0.039

Q: What about the surviving fraction (MDV3100 [11]; 1 nM) of the same test system?
A: 1 ± 0.054

Q: And the surviving fraction (MDV3100 [11]; 5 nM)?
A: 1.01 ± 0.025

Q: What about the surviving fraction (MDV3100 [11]; 10 nM) of the same test system?
A: 1.01 ± 0.039

Q: What about the surviving fraction (MDV3100 [11]; 50 nM) of the same test system?
A: 1.02 ± 0.02

Q: What about the surviving fraction (MDV3100 [11]; 100 nM) of the same test system?
A: 1.01 ± 0.029

Q: And the surviving fraction (MDV3100 [11]; 500 nM)?
A: 0.973 ± 0.012

Q: What about the surviving fraction (MDV3100 [11]; 1000 nM) of the same test system?
A: 0.952 ± 0.0046

Q: And the surviving fraction (SAPACITABINE [12]; 0.5 nM)?
A: 0.975 ± 0.036

Q: And the surviving fraction (SAPACITABINE [12]; 1 nM)?
A: 0.97 ± 0.058

Q: What about the surviving fraction (SAPACITABINE [12]; 5 nM) of the same test system?
A: 0.978 ± 0.034

Q: What about the surviving fraction (SAPACITABINE [12]; 10 nM) of the same test system?
A: 0.996 ± 0.028

Q: And the surviving fraction (SAPACITABINE [12]; 50 nM)?
A: 0.951 ± 0.027

Q: And the surviving fraction (SAPACITABINE [12]; 100 nM)?
A: 0.789 ± 0.043

Q: What about the surviving fraction (SAPACITABINE [12]; 500 nM) of the same test system?
A: 0.305 ± 0.012

Q: What about the surviving fraction (SAPACITABINE [12]; 1000 nM) of the same test system?
A: 0.262 ± 0.03

Q: And the surviving fraction ([13]; 0.5 nM)?
A: 0.998 ± 0.018

Q: What about the surviving fraction ([13]; 1 nM) of the same test system?
A: 1.01 ± 0.032

Q: What about the surviving fraction ([13]; 5 nM) of the same test system?
A: 1.051 ± 0.01

Q: And the surviving fraction ([13]; 10 nM)?
A: 1.031 ± 0.002

Q: What about the surviving fraction ([13]; 50 nM) of the same test system?
A: 1.12 ± 0.021

Q: And the surviving fraction ([13]; 100 nM)?
A: 1.15 ± 0.034

Q: And the surviving fraction ([13]; 500 nM)?
A: 0.394 ± 0.034

Q: And the surviving fraction ([13]; 1000 nM)?
A: 0.183 ± 0.02

Q: And the surviving fraction (TIOGUANINE [14]; 0.5 nM)?
A: 0.987 ± 0.028

Q: What about the surviving fraction (TIOGUANINE [14]; 1 nM) of the same test system?
A: 0.9777 ± 0.0058

Q: What about the surviving fraction (TIOGUANINE [14]; 5 nM) of the same test system?
A: 1.01 ± 0.024

Q: And the surviving fraction (TIOGUANINE [14]; 10 nM)?
A: 0.986 ± 0.011

Q: And the surviving fraction (TIOGUANINE [14]; 50 nM)?
A: 1.026 ± 0.0069

Q: And the surviving fraction (TIOGUANINE [14]; 100 nM)?
A: 1.039 ± 0.0067

Q: What about the surviving fraction (TIOGUANINE [14]; 500 nM) of the same test system?
A: 0.983 ± 0.028

Q: And the surviving fraction (TIOGUANINE [14]; 1000 nM)?
A: 0.999 ± 0.018

Q: And the surviving fraction (CANERTINIB [15]; 0.5 nM)?
A: 0.981 ± 0.051

Q: And the surviving fraction (CANERTINIB [15]; 1 nM)?
A: 0.983 ± 0.038

Q: What about the surviving fraction (CANERTINIB [15]; 5 nM) of the same test system?
A: 1.03 ± 0.054

Q: And the surviving fraction (CANERTINIB [15]; 10 nM)?
A: 1 ± 0.051

Q: And the surviving fraction (CANERTINIB [15]; 50 nM)?
A: 0.9877 ± 0.0076

Q: What about the surviving fraction (CANERTINIB [15]; 100 nM) of the same test system?
A: 0.953 ± 0.021

Q: What about the surviving fraction (CANERTINIB [15]; 500 nM) of the same test system?
A: 0.903 ± 0.019

Q: What about the surviving fraction (CANERTINIB [15]; 1000 nM) of the same test system?
A: 0.863 ± 0.018

Q: What about the surviving fraction (BI-2536 [16]; 0.5 nM) of the same test system?
A: 1.02 ± 0.021

Q: What about the surviving fraction (BI-2536 [16]; 1 nM) of the same test system?
A: 0.993 ± 0.017

Q: What about the surviving fraction (BI-2536 [16]; 5 nM) of the same test system?
A: 1.03 ± 0.023

Q: And the surviving fraction (BI-2536 [16]; 10 nM)?
A: 0.831 ± 0.058

Q: And the surviving fraction (BI-2536 [16]; 50 nM)?
A: 0.404 ± 0.013

Q: And the surviving fraction (BI-2536 [16]; 100 nM)?
A: 0.327 ± 0.026

Q: What about the surviving fraction (BI-2536 [16]; 500 nM) of the same test system?
A: 0.248 ± 0.0076

Q: What about the surviving fraction (BI-2536 [16]; 1000 nM) of the same test system?
A: 0.258 ± 0.015

— the supplement of paper PMC6045584
